For experiment [1], the system named is UMR106.01 cells. Put plainly: cAMP production (adenylate cyclase response) in UMR106.01 cells. Type of experiment: cell-based. The following applies: for cAMP formation by the peptide alone: FIG. 5A/5B; for maximum amplitude of cAMP response: compared with other peptides at highest concentrations. Here is the method: The PTH-like biological activity of the peptides was assayed by measuring cyclic adenosine 3′,5′-monophosphate (cAMP) production in UMR106.01 cells (Forrest et al, Calcif Tissue Int, 37:52-56 (1985)), grown to 90% confluence. Prior to assaying, the cells were washed once with phosphate buffered saline (PBS) and equilibrated for 20 mins in medium containing 0.1% BSA and lmM-isobutylmethylxanthine (Sigma, St Louis, USA). Cells were subsequently stimulated at 37° C for 10 mins in the absence and presence of increasing hormone concentrations. The cells were then washed once with PBS and cAMP was extracted with 1.5 ml acidified ethanol. Samples were evaporated to dryness, reconstituted in assay buffer and assayed by a specific cAMP radioimmunoassay (Houssami et al, Endocrine J. 2:127-134 (1994)).

Experiment [2] addresses PTH-1R (UniProt P25961). Briefly: cell-based or functional assay.
Experiment [3] has as its system polyclonal antisera raised against human PTHrP(1-14), human PTHrP(1-141) and hPTH(1-34). Briefly: Immunoblots (dot blots) with anti-human PTHrP and anti-human PTH antisera. Type of experiment: binding, rabbit. The following applies: 10, 25, 50 μg spotted, data not shown. The source says:
Seven antisera (R88, R1904, R1942, R87, R1348, R196, R212) were raised against human PTHrP(1-14) and one antiserum (R190) was raised against human PTHrP(1-141). The anti-PTH polyclonal antibody was raised against hPTH(1-34)(BioGenex, San Ramon, USA). The anti-human PTHrP antisera have been used successfully in immunohistochemistry and Western blotting with tissues taken from bony and cartilaginous fishes (Danks et al, Gen Comp Endocrinol, 92:201-212 (1993); Ingleton et al, Gen Comp Endocrinol 98:211-218 (1995)). The anti-PTH antiserum has been used in immunohistochemistry of human parathyroid material and Western blotting (Danks et al, J Pathol, 161:27-33 (1993)). 10, 25, 50 μg of Fugu PTH were spotted along side a positive control, (ie human PTHrP(I-34)), on nitrocellulose membrane (Schleicher & Schuell, Dassel, Germany). After an initial incubation period with Tris buffered saline, 0.2% Tween, 5% skim milk powder to block non specific binding sites, the nitrocellulose membrane was incubated with primary polyclonal antibody, followed by secondary antibody (anti-rabbit serum conjugated to horseradish peroxidase (Dako, Carpenteria, USA)) incubation. Three washes on a shaker table were done in between incubations. A BM chemiluminescence blotting system (Roche Applied Sciences, Mannheim, Germany) was used to detect specific dot blots.
(In western blotting, separated proteins are transferred to a membrane and probed.)

Experiment [4] concerns bones of male Sprague-Dawley rats. Put plainly: Anabolic effect on bones of rats (histomorphometry of proximal tibiae). Type of experiment: in vivo, rat. The following applies: for histomorphometric markers of bone resorption: FIG. 11; for osteoblast number per unit osteoid surface: FIG. 10. Here is the method: The anabolic effect of Fugu PTH was assessed in the bones of 50-60 g male Sprague-Dawley rats (3-4 weeks old).
Rats were subcutaneously administered a low or high dose (3 or 10 gg) of Fugu PTH(1-34) per 100 g body weight each day for 30 days. The synthetic PTH peptides were dissolved in 0.01M acetic acid and then daily injections were prepared in normal saline with 2% rat serum (from male Sprague-Dawley rats). The rats were weighed twice a week and the PTH dose adjusted for the increasing weight of each animal.
There were 12 rats in each of the following treatment groups: control, human PTH (low or high dose) and Fugu PTH (low or high dose). Rats were euthanased using asphyxiation and tibiae were removed, leaving most of the muscle on the bone. The samples were placed into freshly prepared 4% paraformaldehyde. They were fixed for 24 hours and then transferred to 70% ethanol in preparation for histomorphometry.
Fixed tibiae were X-rayed and embedded in methylmethacrylate resin as follows: Tibiae were cleaned of muscle, then bisected transversely and trimmed approximately 2 mm on each side using a water cooled slow speed bench saw to provide a flat surface for embedding, parallel to the sagittal midline. Fixed tibiae were dehydrated in acetone by hourly changes of 70% acetone, 90% acetone and 100% acetone (×2). After dehydration, samples were infiltrated with methylmethacrylate resin (85% methylmethacrylate, 15% dibutylphthalate, 0.05% benzoyl peroxide) twice for at least 3 days (minimum total of 6 days). For at least one day of the infiltration procedure, samples were infiltrated under vacuum at room temperature; all other steps were carried out at 4° C. After infiltration, tibiae were embedded in glass scintillation vials on a polymerised methylmethacrylate base in methylmethacrylate resin (85% methylmethacrylate, 15% dibuylphthalate, 3% benzoyl peroxide) in a waterbath in a 37° C. incubator over 48 hours. After polymerisation, a third layer of methacrylate was included (same components as above plus acrylic resin beads) and allowed to polymerise over another 48 hours. After samples were fully polymerised, they were cooled at −20° C. to allow polymer contraction, before the embedded tibiae were released from the glass vials by smashing them with a hammer. Polymerised tibiae were then ground on an electric grinder/ polisher to expose the bone surface, and provide a squared block to sit securely in a microtome. 5 μm sections were cut on a Leica 2165 microtome, spread with 95% ethanol and adhered to glass microscope slides by clamping overnight at 37° C. separated by pieces of bagging plastic. Fully adhered sections were deplasticised in cellosolve for 2×25 minutes, dehydrated in graded ethanols and stained with toluidine blue for standard histomorphometry. Von Kossa staining was carried out to provide composite images.
Histomorphometry was carried out according to standard procedures using the Osteomeasure Image analysis system (Osteometrics, Decatur, Ga.) in the secondary spongiosa, starting 3 mm below the growth plate in a region 3 mm wide by 1.1 mm high. Data was analysed by one-way ANOVA followed by Tukey's post-hoc test to locate significant differences.

Experiment [5] has as its system PTH-3R. The following applies: zebrafish PTH-3R, Rubin et al; cited from earlier work.
The mark [6] stands for this setting: 10 microgram/100 gram body weight/day, 30 days, vs untreated control.
Where [7] appears, read: high dose 10 microgram/100 gram body weight/day.

“Also recorded” adds a separate entry of the source.

Sequence of UniProt P25961 (P25961 27-591 limits assumed): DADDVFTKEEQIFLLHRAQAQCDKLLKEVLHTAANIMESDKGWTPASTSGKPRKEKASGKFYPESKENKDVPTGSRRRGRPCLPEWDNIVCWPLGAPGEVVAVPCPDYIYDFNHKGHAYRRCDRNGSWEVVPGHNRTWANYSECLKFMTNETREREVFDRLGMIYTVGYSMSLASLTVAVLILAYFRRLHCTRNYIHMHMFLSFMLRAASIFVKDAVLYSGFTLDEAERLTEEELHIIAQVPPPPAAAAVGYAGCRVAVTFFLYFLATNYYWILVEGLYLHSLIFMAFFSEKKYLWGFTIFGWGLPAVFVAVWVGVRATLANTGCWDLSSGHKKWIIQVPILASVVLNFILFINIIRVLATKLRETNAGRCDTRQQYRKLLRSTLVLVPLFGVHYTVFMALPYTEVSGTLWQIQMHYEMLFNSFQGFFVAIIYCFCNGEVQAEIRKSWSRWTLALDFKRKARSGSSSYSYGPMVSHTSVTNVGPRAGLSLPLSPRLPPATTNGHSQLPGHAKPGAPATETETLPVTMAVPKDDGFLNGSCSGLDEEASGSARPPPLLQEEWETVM

On to “Fugu PTH(1-32): synthetic fragment, amino acids 1-32 of Fugu PTH (TVSEVQLMHNLGEHKQVQERREWLQRRLHGIH)”, for which, in experiment [1], the “cAMP formation by the peptide alone” value is “stimulated cAMP formation” and the “maximum amplitude of cAMP response” value was “higher amplitude of maximum cAMP response than Fugu PTHrP(1-34)”.

As to Fugu PTHrP(1-34) (peptide), in experiment [2], the ID50 of adenylate cyclase response (FIG. 5B), UMR106.01 cells is 1.5 nM and the ID50 of cAMP formation in UMR106.01 cells was 1.4 nM.

Regarding “TVSEVQLMHNLGEHKQVQERREWLQRRLHGIHPIGLNNDDEPGWGRKGIASRELPNLRDLTPEEIQNALNVLEELLKSQE [Fugu PTH(1-34)]”, in experiment [1], the “potency in cAMP assay relative to other peptides” value is “less potent than human PTH(1-34), human PTHrP(1-34) and Fugu PTHrP(1-34)”; the “cAMP formation by the peptide alone” value is listed as “stimulated cAMP formation”; the “maximum amplitude of cAMP response” value was “higher amplitude of maximum cAMP response than Fugu PTHrP(1-34); also recorded: significantly greater than that achieved with the highest concentrations of human PTH, human PTHrP or Fugu PTHrP”. Also, the “adenylate cyclase activity on co-incubation with Fugu PTHrP(1-34)” value in experiment [1] (100 nM Fugu PTH(1-34) with maximal dose 10 nM Fugu PTHrP(1-34), data not shown) is reported as “no further increase in adenylate cyclase activity was observed”. The “potency relative to human PTH or PTHrP” value in experiment [1] (adenylate cyclase activation on a mammalian target cell) is listed as “about one-fifth to one-tenth”. For the same substance, in experiment [3], the “cross-reactivity with antisera against human PTHrP and human PTH” value was “does not cross-react; also recorded: is not recognised by any of the human PTH or human PTHrP antisera”. In addition, in experiment [4] (setting [6]), the trabecular bone volume entry is reported as “significant increase”, the trabecular number entry is reported as “significant increase”, the trabecular separation entry was “without a reduction” and the trabecular thickness result is reported as “significant increase”. For the same substance, in experiment [4] (10 micrograms/100 grams), the osteoblast generation result is given as “increased osteoblast generation”. In addition, the “anabolic effect on bone” value in experiment [4] (10 micrograms/100 grams, young growing rats) is listed as “anabolic in young growing rats”. Moreover, the “histomorphometric markers of bone resorption” value in experiment [4] (dose not specified) is listed as “not significantly altered”. Further, in experiment [4] (setting [7]), the osteoclast number result was “trend for reduced osteoclast numbers but this did not reach statistical significance; also recorded: trend towards reduced osteoclast number” and the “osteoblast number per unit osteoid surface” value is recorded as “significantly increased”. For the same substance, the osteoblast proliferation result in experiment [4] (low dose 3 microgram/100 gram body weight/day, FIG. 9) is “trend towards increased osteoblast proliferation”. Also, the “osteoblast number per unit osteoid surface” value in experiment [4] (low dose 3 microgram/100 gram body weight/day) is “significantly increased”. Besides, the “bone mass / trabecular density in proximal tibiae” value in experiment [4] (young rats, s.c. daily for 30 days, 3 or 10 microgram/100 gram body weight/day, FIG. 6) is on record as “increases bone mass in young rats; also recorded: apparent elevation of trabecular density”.

“human PTH: human parathyroid hormone, comparator peptide in rats (low or high dose); fragment length not stated there [reference compound]”: the osteoclastogenesis entry in experiment [4] (10 microgram/100 gram) is given as “mild reduction in osteoclastogenesis”. In experiment [4] (dose not specified in legend, FIG. 9), the “histomorphometric markers of bone formation (osteoblast number and surface)” value was “significantly elevated”. In experiment [4] (setting [7]), the “osteoblast number per unit osteoid surface” value is reported as “significantly increased” and the “histomorphometric markers of bone resorption” value is “significantly reduced”. The “fold less potent than human PTHrP or Fugu PTHrP in receptor activation” value in experiment [5] is reported as 20 fold.

For “human PTHrP(7-34): human parathyroid hormone-related protein fragment 7-34, co-incubated as inhibitor of the cAMP response [reference compound]”, in experiment [1] (increasing concentrations co-incubated with 10 nM Fugu PTH(1-34), 1 nM human PTH(1-34), 0.5 nM Fugu PTHrP(1-34) or 0.5 nM human PTHrP(1-34), data not shown), the “inhibition of the cAMP response to agonist peptides” value is on record as “partial inhibition of the cAMP response”.
